Each structure is given as a SMILES string.

For this assay, the system named is MCF7-ADRr. It counts as cell-based. The method, then: The cytotoxic activity was evaluated according to M. C. Alley et al., Cancer Research, 48, 589-601, […].

In turn, `COc1cc2c(c(OC)c1OC)-c1ccc(SC)c(=O)cc1[C@@H](NC(C)=O)CC2` [Thiocolchicine] registered an MCF7-ADRr/MCF7 of 20000.

(Values after patent US6627774B2, “N-deacetylthiocolchicine derivatives and pharmaceutical compositions containing them” (Indena S.p.A., priority 2001, dated 2003).)
